Assay results: patent US20240131032A1, “AN ACTIVITY-GUIDED MAP OF ELECTROPHILE-CYSTEINE INTERACTIONS IN PRIMARY HUMAN IMMUNE CELLS” (The Scripps Research Institute, priority 2019, published 2024)

What was measured:
BIRC3 = target: T1, BIRC3 (Homo sapiens, UniProt Q13489); test: isoTOP-ABPP and TMT-ABPP cysteine engagement, BIRC3; type: binding
T1 construct: endogenous in cells; host or cells: primary human T cells
Procedure: (§1) Activated or expanded T cells were re-suspended in RPMI media supplemented with 10% FBS, L-glutamine (2 mM), penicillin (100 U/mL), and streptomycin (100 μg/mL) at 2×10^6 cells/mL. The compounds were added to cells as 1000×DMSO stocks and mixed well with the media by pipetting up and down after addition. The cells were kept at 37° C. in 5% CO2 containing incubators for 3 h (or otherwise specified times), then pelleted by centrifugation (524 g, 5 min, 4° C.), washed with cold PBS (10 mL) and transferred to Eppendorf tubes (1 mL PBS). The cells were pelleted again (524 g, 5 min, 4° C.), flash-frozen, and kept at −80° C. until further analysis.
Activated or expanded primary human T cells were re-suspended in RPMI (1×10^6 cells/mL) containing 10% fetal bovine serum (FBS), penicillin (100 U/mL), streptomycin ([…]), and L-glutamine (2 mM). […] The resulting proteomes were analyzed by competitive isotopic Tandem Orthogonal Proteolysis Activity-Based Protein Profiling (isoTOP-ABPP). […]
The heavy/light isoTOP-ABPP ratios (R values) for each unique peptide (DMSO/compound treated) were quantified with in-house CIMAGE software (Weerapana et al., 2010) using default parameters (3 MS1 acquisitions per peak and signal to noise threshold set to 2.5). Site-specific engagement of cysteine residues was assessed by blockade of IA-alkyne probe labeling. […]

NuRD complex member mRNA = test: mRNA expression of NuRD complex members (RNAseq); type: cell-based, human
Procedure: FIG. 7B is a scatter plot representation of protein abundance changes caused by BPK-25 (10 μM, 24 h) in two independent replicate experiments, with decreases in NuRD complex components highlighted in red. FIG. 7C is a heatmap of top proteins with decreased abundance in BPK-25-treated T cells showing that the subset of these proteins in the NuRD complex (asterisks) were largely unaltered by other active compounds and blocked in their degradation by co-treatment with the proteasome inhibitor MG132. […] FIG. 7E is a bar graph […] showing time-dependent reductions in NuRD complex members in human T cells treated with BPK-25 (10 μM). Left, representative western blots. Right, quantification of changes in protein. […] FIG. 7G is a heat map showing the changes in cysteine reactivity for NuRD complex members in human T cells treated with BPK-25 and other active compounds. […]
RNA quality was assessed using TapeStation 4200 and RNA-Seq libraries were prepared using the TruSeq stranded mRNA Sample Preparation Kit v2 according to Illumina protocols. Multiplexed libraries were validated using TapeStation 4200, normalized, pooled and quantified by qPCR for sequencing. […]
Sequenced reads were quality-tested using FASTQC Andrews S. (2010). […] Mapping was carried out using default parameters (up to 10 mismatches per read, and up to 9 multi-mapping locations per read). […]

MYD88 = target: T2, MYD88 (Homo sapiens, UniProt Q99836); test: isoTOP-ABPP and TMT-ABPP cysteine engagement, MYD88; type: binding
T2 construct: endogenous in cells
T2 sequence (Q99836 whole entry): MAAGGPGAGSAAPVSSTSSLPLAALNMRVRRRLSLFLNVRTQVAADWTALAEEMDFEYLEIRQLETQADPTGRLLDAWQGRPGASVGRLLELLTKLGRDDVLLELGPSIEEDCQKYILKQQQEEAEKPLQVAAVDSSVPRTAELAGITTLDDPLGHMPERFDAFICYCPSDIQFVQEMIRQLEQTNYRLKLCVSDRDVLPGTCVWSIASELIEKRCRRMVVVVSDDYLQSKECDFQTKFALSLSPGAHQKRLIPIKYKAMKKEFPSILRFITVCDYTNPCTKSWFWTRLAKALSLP
Procedure: as §1
Activated or expanded primary human T cells were re-suspended in RPMI (1×10^6 cells/mL) containing 10% fetal bovine serum (FBS), penicillin (100 U/mL), streptomycin ([…]), and L-glutamine (2 mM). The cells were treated with DMSO or compounds for 3 h, pelleted (524 g, 5 min), washed with PBS, and lysed by sonication (2×8 pulses). Soluble and particulate proteomic fractions were separated by ultracentrifugation (100,000 g, 45 min), and protein concentration was normalized to 1.7 mg/mL using a standard DC protein assay (Bio-Rad). The resulting proteomes were analyzed by competitive isotopic Tandem Orthogonal Proteolysis Activity-Based Protein Profiling (isoTOP-ABPP). […]
The heavy/light isoTOP-ABPP ratios (R values) for each unique peptide (DMSO/compound treated) were quantified with in-house CIMAGE software (Weerapana et al., 2010) using default parameters (3 MS1 acquisitions per peak and signal to noise threshold set to 2.5). Site-specific engagement of cysteine residues was assessed by blockade of IA-alkyne probe labeling. […] Ratios for unique peptide sequences were calculated for each experiment; overlapping peptides with the same modified cysteine (e.g., different charge states, elution times or tryptic termini) were grouped together and the median ratio was reported as the final ratio (R). […]

T1 sequence (Q13489 whole entry): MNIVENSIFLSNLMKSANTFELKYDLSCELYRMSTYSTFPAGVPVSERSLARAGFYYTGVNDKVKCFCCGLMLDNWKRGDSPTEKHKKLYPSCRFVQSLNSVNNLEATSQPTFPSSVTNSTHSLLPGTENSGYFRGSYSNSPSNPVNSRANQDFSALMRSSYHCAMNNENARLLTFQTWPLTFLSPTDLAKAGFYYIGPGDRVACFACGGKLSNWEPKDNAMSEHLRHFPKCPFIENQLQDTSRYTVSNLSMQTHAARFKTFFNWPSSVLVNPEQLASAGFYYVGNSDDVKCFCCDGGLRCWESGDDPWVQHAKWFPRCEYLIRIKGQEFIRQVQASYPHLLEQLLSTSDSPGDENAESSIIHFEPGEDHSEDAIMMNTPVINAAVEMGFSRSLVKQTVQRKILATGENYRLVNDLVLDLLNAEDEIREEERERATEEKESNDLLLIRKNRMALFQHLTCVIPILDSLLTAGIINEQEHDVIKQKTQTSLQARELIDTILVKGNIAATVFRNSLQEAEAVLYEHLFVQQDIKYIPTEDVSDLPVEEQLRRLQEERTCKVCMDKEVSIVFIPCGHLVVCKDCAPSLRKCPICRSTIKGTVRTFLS

Row | Compound | engagement of C28 of BIRC3 (BIRC3) | mRNA expression for NuRD complex members (NuRD complex member mRNA) | labeling of C203 of MYD88 (MYD88)
1 | O=C(CCl)N1CCN(S(=O)(=O)c2ccc(-c3ccncc3)cc2)CC1 [EV-3] | unique target | – | –
2 | C=CC(=O)N(Cc1cccc(Cl)n1)c1ccc(C(=O)Nc2ccccc2)nc1 [BPK-25] | – | not accompanied by corresponding changes in mRNA expression | direct labeling of C203
